Measurements from PubChem BioAssay (NCI).
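Where inhibition never reached the appropriate level, the endpoint shown equals the highest concentration tested. Otherwise, values were interpolated linearly from a five-concentration, 48-hour dose response in 96-well plates. Here, GI50 denotes the concentration required for 50% inhibition of growth. Definition used: TGI = concentration required for complete inhibition of growth.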

How the values were obtained:
Assay in all cases: NCI anticancer screen, dose series, 48 h
[1] = tested on: OVCAR-4 ovarian
[2] = tested on: RPMI-8226 leukemia
[3] = tested on: TK-10 renal
[4] = tested on: OVCAR-3 ovarian
[5] = tested on: SK-MEL-28 melanoma
[6] = tested on: MCF7 breast
[7] = tested on: KM12 colon
[8] = tested on: SK-OV-3 ovarian
[9] = tested on: SF-268 CNS
[10] = tested on: MALME-3M melanoma

Question: With `CCCCCCSc1nc(COC(=O)NC)c(COC(=O)NC)n1C` as the compound, how does the TGI [1] read?
Answer: > 100 µM

Question: And the TGI [2]?
Answer: > 100 µM

Question: And the TGI [3]?
Answer: > 100 µM

Question: What about the TGI [4] of the same compound?
Answer: > 100 µM

Question: What about the TGI [5] of the same compound?
Answer: > 100 µM

Question: And the TGI [6]?
Answer: > 100 µM

Question: And the TGI [7]?
Answer: > 100 µM

Question: And the TGI [8]?
Answer: > 100 µM

Question: And the TGI [9]?
Answer: > 100 µM

Question: With `CC1CC(c2ccc(Cl)c(Cl)c2)=Nc2ccccc2S1` (stereo unspecified) as the compound, how does the TGI [10] read?
Answer: > 100 µM

Question: What about the TGI [1] of the same compound?
Answer: > 100 µM

Question: What about the TGI [2] of the same compound?
Answer: > 100 µM

Question: And the TGI [3]?
Answer: > 100 µM

Question: And the TGI [4]?
Answer: > 100 µM

Question: What about the TGI [5] of the same compound?
Answer: > 100 µM

Question: And the TGI [7]?
Answer: > 100 µM

Question: What about the TGI [8] of the same compound?
Answer: > 100 µM

Question: What about the TGI [9] of the same compound?
Answer: > 100 µM

Question: Which TGI [10] does the source give for `CN1CCc2cc3c4cc2C1Cc1ccc(cc1)Oc1cc(ccc1O)CC1c2c(cc(O)c(c2O4)O3)CCN1C` (stereo unspecified) here?
Answer: 3.56 µM

Question: What about the TGI [1] of the same compound?
Answer: 4.37 µM

Question: And the TGI [2]?
Answer: 4.02 µM

Question: And the TGI [3]?
Answer: 31 µM

Question: What about the TGI [4] of the same compound?
Answer: 11.5 µM

Question: And the TGI [5]?
Answer: 3.33 µM

Question: What about the TGI [7] of the same compound?
Answer: 4.43 µM

Question: What about the TGI [8] of the same compound?
Answer: 9 µM

Question: And the TGI [9]?
Answer: 6.18 µM

Question: Which GI50 [1] does the source give for `N#Cc1c(N)c(C#N)c2c(c1-c1ccc(Cl)cc1)COc1ccc(F)cc1-2` here?
Answer: > 50 µM

Question: And the TGI [1]?
Answer: > 50 µM

Question: And the GI50 [2]?
Answer: 19 µM

Question: What about the TGI [2] of the same compound?
Answer: > 50 µM

Question: And the GI50 [3]?
Answer: 7.63 µM

Question: And the TGI [3]?
Answer: 29.9 µM

Question: And the GI50 [4]?
Answer: 16.2 µM

Question: What about the TGI [4] of the same compound?
Answer: > 50 µM

Question: What about the GI50 [5] of the same compound?
Answer: > 50 µM

Question: What about the TGI [5] of the same compound?
Answer: > 50 µM

Question: And the GI50 [6]?
Answer: 16.5 µM

Question: What about the TGI [6] of the same compound?
Answer: > 50 µM

Question: What about the GI50 [7] of the same compound?
Answer: 12.3 µM

Question: What about the TGI [7] of the same compound?
Answer: > 50 µM

Question: And the GI50 [8]?
Answer: > 50 µM

Question: And the TGI [8]?
Answer: > 50 µM

Question: Which TGI [10] does the source give for `Cc1c(O)c(Br)c(C)c(O)c1Br` (tested in a mixture with another compound) here?
Answer: 3.55 µM

Question: What about the TGI [1] of the same compound?
Answer: 3.04 µM

Question: What about the TGI [2] of the same compound?
Answer: 6.06 µM

Question: What about the TGI [3] of the same compound?
Answer: 3.01 µM

Question: What about the TGI [5] of the same compound?
Answer: 3.56 µM

Question: And the TGI [7]?
Answer: 41.2 µM

Question: And the TGI [8]?
Answer: 29.4 µM

Question: What about the TGI [9] of the same compound?
Answer: 8.45 µM

Question: What does the source list for `O=C(CSc1ncc(-c2ccccc2)n1-c1ccccc1)Nc1ccc(-c2nc3ccccc3s2)cc1`?
Answer: GI50 [2]: > 100 µM; TGI [2]: > 100 µM; GI50 [3]: 34.4 µM; TGI [3]: > 100 µM; GI50 [4]: 7.22 µM; TGI [4]: > 100 µM; GI50 [6]: 3.98 µM; TGI [6]: > 100 µM; GI50 [8]: 55.7 µM; TGI [8]: > 100 µM; GI50 [9]: 3.5 µM; TGI [9]: > 100 µM

Question: Which results are given for `NCC1(N2CCOCC2)C2CCCC21CNc1ccccc1` (stereo unspecified)?
Answer: TGI [10]: > 100 µM; TGI [1]: > 100 µM; TGI [3]: > 100 µM; TGI [4]: > 100 µM; TGI [5]: > 100 µM; TGI [7]: > 100 µM; TGI [9]: > 100 µM

Question: For `COC1=CC2CCN3Cc4cc5c(cc4C(C1O)C23)OCC5` (stereo unspecified), which GI50 [1] is on record?
Answer: 1.33 µM

Question: What about the TGI [1] of the same compound?
Answer: 22.8 µM

Question: And the GI50 [2]?
Answer: 15 µM

Question: And the TGI [2]?
Answer: > 29.1 µM

Question: And the GI50 [3]?
Answer: 5.53 µM

Question: What about the TGI [3] of the same compound?
Answer: 41.9 µM

Question: What about the GI50 [4] of the same compound?
Answer: 1.78 µM

Question: And the TGI [4]?
Answer: 5.62 µM

Question: And the GI50 [5]?
Answer: 3.46 µM

Question: And the TGI [5]?
Answer: > 24.2 µM

Question: And the GI50 [6]?
Answer: 3.36 µM

Question: And the TGI [6]?
Answer: > 100 µM

Question: What about the GI50 [7] of the same compound?
Answer: 3.06 µM

Question: What about the TGI [7] of the same compound?
Answer: 30.3 µM

Question: What about the GI50 [8] of the same compound?
Answer: 1.84 µM

Question: What about the TGI [8] of the same compound?
Answer: > 100 µM

Question: And the GI50 [9]?
Answer: 4.57 µM

Question: And the TGI [9]?
Answer: > 100 µM

Question: `CCCCC(C(=O)CCC(=O)Nc1ccc(Cl)cc1)C(=O)C(C)C` (stereo unspecified) was tested. Which TGI [10] did it give?
Answer: > 100 µM

Question: And the TGI [1]?
Answer: > 100 µM

Question: What about the TGI [2] of the same compound?
Answer: > 100 µM

Question: And the TGI [3]?
Answer: > 100 µM

Question: What about the TGI [4] of the same compound?
Answer: > 100 µM

Question: What about the TGI [5] of the same compound?
Answer: > 100 µM

Question: What about the TGI [7] of the same compound?
Answer: > 100 µM

Question: And the TGI [8]?
Answer: > 100 µM

Question: What about the TGI [9] of the same compound?
Answer: > 100 µM

Question: What does the source list for `COC(=O)C1(O)c2ccccc2N=C2C1CCN2C` (stereo unspecified)?
Answer: TGI [10]: > 100 µM; TGI [1]: > 100 µM; TGI [2]: > 100 µM; TGI [3]: > 100 µM; TGI [5]: > 100 µM; TGI [7]: > 100 µM; TGI [8]: > 100 µM; TGI [9]: > 100 µM

Question: Which results are given for `COC(CC1(OC)OC(=O)C=C1N)OC` (stereo unspecified)?
Answer: TGI [10]: > 100 µM; TGI [1]: > 100 µM; TGI [2]: > 100 µM; TGI [3]: > 100 µM; TGI [4]: > 100 µM; TGI [5]: > 100 µM; TGI [7]: > 100 µM; TGI [8]: > 100 µM; TGI [9]: > 100 µM

Question: Which TGI [10] does the source give for `Cc1ccc2nc3c(C)cc(=O)cc-3sc2c1` here?
Answer: 81.1 µM

Question: And the TGI [1]?
Answer: 33.6 µM

Question: And the TGI [3]?
Answer: 49.8 µM

Question: And the TGI [4]?
Answer: 55.2 µM

Question: What about the TGI [5] of the same compound?
Answer: 73 µM

Question: And the TGI [7]?
Answer: 65.4 µM

Question: And the TGI [8]?
Answer: > 100 µM

Question: And the TGI [9]?
Answer: > 100 µM

Question: Which results are given for `COc1ccc2c(c1)N(CCO)C1=C(C(=O)OC1)C2c1ccc(OC)c(OC)c1` (stereo unspecified)?
Answer: GI50 [1]: 4.77 µM; TGI [1]: > 100 µM; GI50 [2]: 3.78 µM; TGI [2]: > 100 µM; GI50 [3]: 4.19 µM; TGI [3]: > 100 µM; GI50 [4]: 1.92 µM; TGI [4]: 4.24 µM; GI50 [5]: 3.33 µM; TGI [5]: > 100 µM; GI50 [6]: 2.67 µM; TGI [6]: > 100 µM; GI50 [7]: 1.43 µM; TGI [7]: 14.7 µM; GI50 [8]: 4.13 µM; TGI [8]: > 100 µM; GI50 [9]: 4.5 µM; TGI [9]: > 100 µM

Question: What does the source list for `Cc1[nH]n(-c2cccc(Cl)c2)c(=O)c1/C=C1\C=c2ccccc2=CC1=O`?
Answer: GI50 [10]: 29.2 µM; TGI [10]: > 100 µM; GI50 [1]: > 100 µM; TGI [1]: > 100 µM; GI50 [2]: > 100 µM; TGI [2]: > 100 µM; GI50 [3]: 35 µM; TGI [3]: > 100 µM; GI50 [4]: 59.5 µM; TGI [4]: > 100 µM; GI50 [7]: > 100 µM; TGI [7]: > 100 µM; GI50 [8]: 26.5 µM; TGI [8]: > 100 µM; GI50 [9]: 97.1 µM; TGI [9]: > 100 µM
